How the values were obtained:
normal human PBMC [1] = experiment: Cytokine release assay in stimulated normal human PBMC (Luminex multiplex); format: cell-based; conditions: for significant reduction of IL-1α / significant reduction of IL-1β: 5 donors
influenza (H1N1) = format: in vivo, mice
CRS = experiment: Mouse model of CAR T-cell therapy induced CRS (Raji-luc tumor); conditions: IP, BID for 7 days
influenza (H5N1) = conditions: in vivo influenza (H5N1), Gemmus Pharma studies; cited from earlier work
normal human PBMC [2] = experiment: AlamarBlue cell viability of treated PBMC; format: cell-based; conditions: PBMC of Donors 1-5, 48 hours post stimulation, GP1681 750 μM
Method: Following pre-treatment, cells were stimulated with either LPS or Poly (I:C). Twenty-four to forty-eight hours post-stimulation supernatants were collected and tested both for viability (48 hours) as well as concentrations of 29 different cytokines (24 hours.). Viability assessments confirmed the lack of GP1681-associated cell cytotoxicity. Statistical comparisons in individual donor results were conducted between all test groups within each donor group (between individual stimulant-treatment pairs) to determine efficacy of stimulation as well as any potential GP1681 effects on cytokine production. Additionally, statistical analysis was performed on pooled donor data for each cytokine stimulant-treatment pair to comprehensively determine cytokine suppression effects of GP1681 for each cytokine.
After resting the cells, 100 μl of GP1681 was added to appropriate wells at a final dosing concentration of 750 μM. […] For cell stimulation, 20 μL of the 1.0 ng/ml LPS solution or the 250 μg/ml Poly (I:C) solution were added to appropriate wells according to the group designation. Twenty-four hours later 100 uL of supernatant were collected from all wells and stored for cytokine analysis. Approximately four hours before final harvest, AlamarBlue dye was added to all wells. At forty-eight hours post stimulation all samples were collected, and supernatants tested for cell viability. […]

[3] = LPS-stimulated PBMC, 24 h supernatant, DEX 1 μM, GP1681 750 μM
[4] = Poly(I:C)-stimulated PBMC, 24 h supernatant, DEX 1 μM, GP1681 750 μM
[5] = in vivo influenza (H1N1), current CytoAgents studies

SMILES: CC#CC[C@H](C)[C@H](O)/C=C/[C@@H]1[C@H]2c3cccc(CCCC(=O)[O-])c3O[C@H]2C[C@H]1O.[Na+] [GP1681, esuberaprost sodium salt]
- number of cytokines reduced of the 29 cytokines analyzed (normal human PBMC [1]; LPS or Poly(I:C) stimulated PBMC, pooled and individual donor results): 21
- significant reduction of IL-1α (normal human PBMC [1]; [3]): YES
- significant reduction of IL-1β (normal human PBMC [1]; [3]): YES
- significant reduction of CCL2 (MCP-1) (normal human PBMC [1]; [3]): YES
- significant reduction of CCL3 (MIP1 α) (normal human PBMC [1]; [3]): YES
- significant reduction of CCL5 (RANTES) (normal human PBMC [1]; [3]): YES
- significant reduction of CXCL9 (MIG) (normal human PBMC [1]; [3]): YES
- significant reduction of CXCL10 (IP-10) (normal human PBMC [1]; [3]): YES
- significant reduction of FGF (normal human PBMC [1]; [3]): YES
- significant reduction of GM-CSF (normal human PBMC [1]; [3]): YES
- significant reduction of IFN-α2 (normal human PBMC [1]; [3]): YES
- significant reduction of IFN-γ (normal human PBMC [1]; [3]): YES
- significant reduction of IL-4 (normal human PBMC [1]; [3]): YES
- significant reduction of IL-5 (normal human PBMC [1]; [3]): YES
- significant reduction of IL-9 (normal human PBMC [1]; [3]): YES
- significant reduction of IL-12 (normal human PBMC [1]; [3]): YES
- significant reduction of IL-13 (normal human PBMC [1]; [3]): YES
- significant reduction of IL-15 (normal human PBMC [1]; [3]): YES
- significant reduction of IL-17 (normal human PBMC [1]; [3]): YES
- significant reduction of IL-18 (normal human PBMC [1]; [3]): YES
- significant reduction of PDGF (normal human PBMC [1]; [3]): YES
- significant reduction of TNF α (normal human PBMC [1]; [3]): YES
- significant reduction of IL-1α (normal human PBMC [1]; [4]): YES
- significant reduction of IL-1β (normal human PBMC [1]; [4]): YES
- significant reduction of CCL2 (MCP-1) (normal human PBMC [1]; [4]): YES
- significant reduction of CCL5 (RANTES) (normal human PBMC [1]; [4]): YES
- significant reduction of CXCL9 (MIG) (normal human PBMC [1]; [4]): YES
- significant reduction of CXCL10 (IP-10) (normal human PBMC [1]; [4]): YES
- significant reduction of IFN-α2 (normal human PBMC [1]; [4]): YES
- significant reduction of IFN-γ (normal human PBMC [1]; [4]): YES
- significant reduction of IL-4 (normal human PBMC [1]; [4]): YES
- significant reduction of IL-5 (normal human PBMC [1]; [4]): YES
- significant reduction of IL-12 (normal human PBMC [1]; [4]): YES
- significant reduction of IL-13 (normal human PBMC [1]; [4]): YES
- significant reduction of IL-15 (normal human PBMC [1]; [4]): YES
- significant reduction of IL-18 (normal human PBMC [1]; [4]): YES
- significant reduction of PDGF (normal human PBMC [1]; [4]): YES
- significant reduction of TNF α (normal human PBMC [1]; [4]): YES
- number of different cytokines whose production is down regulated (normal human PBMC [1]; data from Gemmus Pharma, Inc studies and the present work together): approximately 25
- nominal reduction in the ex vivo production of IFNα (normal human PBMC [1]; stimulated PBMC, statistically significant): less than 2 fold
- IL-2 reduced by treatment (influenza (H1N1); [5]): reduced
- IL-6 reduced by treatment (influenza (H1N1); [5]): reduced
- IL-10 reduced by treatment (influenza (H1N1); [5]): reduced
- IL-8 production suppressed by treatment (influenza (H1N1); mouse, in vivo): significantly suppressed
- repression of IFNα concentrations (influenza (H1N1); mouse, in vivo): no significant repression
- cytokine production, comparison with dexamethasone (CRS): superior to dexamethasone
- survival benefits over dexamethasone (CRS): greater survival benefits
- IL-2 reduced by treatment (influenza (H5N1)): reduced
- IL-6 reduced by treatment (influenza (H5N1)): reduced
- IL-8 reduced by treatment (influenza (H5N1)): reduced
- IL-10 reduced by treatment (influenza (H5N1)): reduced
- cytotoxicity (Alamar blue viability assessment) (normal human PBMC [2]): no cytotoxicity
